Columns and labels:
CEM-SS lymphocytes = details: peptide concentration 0.1-1 mM, CEM-SS lymphocytes in culture; cited from earlier work
recipient HeLa cells = experiment: Dye delivery study: CRO dye delivery to recipient cells, flow cytometry; type: cell-based; details: 300 μM carbenoxolone
Experimental: The media for the blocked condition was supplemented with 300 μM carbenoxolone, prepared from a 100 mM stock in water. […] Recipient cells for the blocked condition were incubated in PBS supplemented with 300 μM carbenoxolone. Calcein red-orange-loaded vesicles were formed using calcium-free GPMV buffer. […] This ratio was estimated based on hemocytometer counts of the number of vesicles and of the number of recipient cells in a 12 well dish. […] At least 7,500 cells were analyzed for each trial.

HeLa cells = details: 24 hours of exposure, literature; cited from earlier work
in vitro [1] = details: human, MCF-7 cells
Experimental: To test Connectosomes in a second model cell line, the assay was repeated using recipient MCF-7 cells. […] First, a control study was conducted in which the viability of a confluent monolayer of MCF-7 cells was measured 48 hours after free doxorubicin was added directly to the cell media at increasing concentrations from 10 nM to 100 μM (FIG. 4J). Next, independent cell samples were exposed to increasing concentrations of Connectosomes, which were equivalent in terms of total doxorubicin content to free doxorubicin concentrations of 180 nM, 900 nM, and 4.5 μM.

in vitro [2] = details: human, HeLa cells
Experimental: Recipient HeLa cells were plated in a 12 well plate at a density of 25,000 cells per well and a total media volume of 2 mL media per well. Seven hours before addition of the GPMVs, recipient cells received fresh media. Just before addition of the GPMVs, the recipient cells were rinsed once with 2 mL PBS and then incubated in 500 μL fresh PBS. Concentrated GPMVs were resuspended in fresh calcium-free GPMV buffer and counted using a hemocytometer. GPMVs were added to recipient cells at a ratio of approximately 1 GPMV per 2 recipient cells and incubated in the dark at 37° C. with 5% CO2 for 2 hours. After incubation, the recipient cells were rinsed with 2 mL media and then incubated in 2 mL fresh media at 37° C. with 5% CO2. After 24 hours, cell viability was analyzed using a trypan blue or 7-AAD permeability assay.
For the trypan blue assay, the cells were trypsinized with 500 μL trypsin for 5 minutes at 37° C., 5% CO2. […] At least 90 cells were counted for each trial using a hemocytometer. […]
The relationship between the concentration of doxorubicin added via solution and cell viability was determined by incubating recipient HeLa cells in the specified doxorubicin concentration diluted in media from a 10 mM stock in DMSO for 24 hours. Cell viability was measured using both viability assays as described above.

in vitro [3] = details: human, HeLa cells; remark: listed apart in the source
Experimental: Recipient HeLa cells were plated in a 12 well plate at a density of 25,000 cells per well and a total media volume of 2 mL media per well. Seven hours before addition of the GPMVs, recipient cells received fresh media. Just before addition of the GPMVs, the recipient cells were rinsed once with 2 mL PBS and then incubated in 500 μL fresh PBS. Concentrated GPMVs were resuspended in fresh calcium-free GPMV buffer and counted using a hemocytometer. GPMVs were added to recipient cells at a ratio of approximately 1 GPMV per 2 recipient cells and incubated in the dark at 37° C. with 5% CO2 for 2 hours. […] After 24 hours, cell viability was analyzed using a trypan blue or 7-AAD permeability assay.
For the 7-AAD assay, the cells were trypsinized with 500 μL trypsin for 5 minutes at 37° C., 5% CO2. […] Five μL of 7-AAD was added to 45 μL of the resuspended cells, and analyzed using flow cytometry within three minutes of 7-AAD addition. At least 5,000 cells were analyzed for each trial. […] To determine the percentage of non-viable cells in each sample, a threshold was drawn on the flow cytometry fluorescence histograms at the minimum point between the population of cells excluding the dye and the population of cells including the dye. The percentage of cells with fluorescence above these thresholds were considered non-viable. […]

For “SEQ ID NO:1: fusogenic peptide from influenza virus hemagglutinin HA-2”, which “Increase of anti-HIV potency of antisense oligonucleotides” value (CEM-SS lymphocytes) is on record?
Its value is “up to 10 fold”.

For `CC1(C)[C@@H](OC(=O)CCC(=O)O)CC[C@]2(C)[C@H]3C(=O)C=C4[C@@H]5C[C@@](C)(C(=O)O)CC[C@]5(C)CC[C@@]4(C)[C@]3(C)CC[C@@H]12` [carbenoxolone], which “Effect of gap junction inhibitor on CRO dye delivery by Connectosomes” value (recipient HeLa cells) is on record?
The value was “significantly decreased the average recipient cell fluorescence”.

For `COc1cccc2c1C(=O)c1c(O)c3c(c(O)c1C2=O)C[C@@](O)(C(=O)CO)C[C@@H]3O[C@H]1C[C@H](N)[C@H](O)[C@H](C)O1` [free doxorubicin, doxorubicin], which “Cytotoxic dose of doxorubicin” value (HeLa cells) is on record?
Its value is “approximately 10 μM”.

What about the cytotoxicity at 48 h, 100 µM (in vitro [1]) of the same compound?
Its cytotoxicity at 48 h, 100 µM is 44%.

What about the cytotoxicity at 24 h, 10 µM (in vitro [2]) of the same compound?
Its cytotoxicity at 24 h, 10 µM is 44%.

What about the cytotoxicity at 24 h, 100 µM (in vitro [2]) of the same compound?
Its cytotoxicity at 24 h, 100 µM is 87%.

And the cytotoxicity at 24 h, 10 µM (in vitro [3])?
The cytotoxicity at 24 h, 10 µM was 45%.
